Measured values published in a melting point compilation (Tetko et al.; mined from patent text by program, amines drawn as free bases though some values may be those of a salt).

melting point [°C] | SMILES
121 to 123 | COc1cc(C(=O)Cl)ccc1NC(=O)c1ccccc1-c1ccccc1
223 to 229 | O=c1[nH]cccc1-c1ccccc1
152 to 153 | CSc1ccc2c(=O)n([C@H](C)[C@](O)(Cn3cncn3)c3ccc(F)cc3F)cnc2c1
116 to 117 | COc1ccc(NC(=O)c2ccccc2N)cc1
167 to 168 | CCc1cccc(C(O)CC)c1NC(=O)CC1c2ccccc2Oc2ccccc21 (stereo not drawn)
265 to 270 | CCOC(=O)c1cnc2c(C(=O)Nc3cc4cccnc4cc3OC)csc2c1
140 | COC(=O)CCCCCNC(=O)c1csc(NC(=O)NCc2ccccc2)n1
221 | Cn1c(C(F)(F)F)cc(=O)n(-c2ccc3snc(C(=O)NS(N)(=O)=O)c3c2)c1=O
167 to 170 | CC(C)(C)OC(=O)N[C@H]1CN(N=C(c2ccccc2)c2ccccc2)C1=O
97 to 98 | COc1ccccc1CCN1CC(=O)N(c2cnn(Cc3c(C)noc3C)c2)C1=O
76 to 78 | Nc1ncnc2c1c(-c1ccc(Oc3ccccc3CN3CCCCC3)cc1)cn2C1CCOC1 (stereo not drawn)
225 | Cc1nc2c3c(ccc2n1C)[C@@H](O)[C@H](O)[C@@H](c1ccccc1)N3
210 to 211 | O=C1N(Cc2ccc(C(F)(F)F)o2)c2c(Cl)cccc2C12COc1cc3c(cc12)CCO3 (stereo not drawn)
233 to 235 | CCC(O)c1ccc(Cl)c2nc3n(c12)CCCN3c1ccc(Cl)cc1Cl (stereo not drawn)
255 to 258 | CN(C)CCCOc1cc2oc3cc(-c4ccccc4Cl)c4c(c3c2cc1O)C(=O)NC4=O
221 | Cc1c(N2CCC(N(C)C)C(C)C2)c(F)cc2c(=O)c(C(=O)O)cn(C3CC3)c12 (stereo not drawn)
211 to 213 | Cc1cc(C)cc(N2CCN(C(=O)Nc3cc(-c4cccnc4)nc4ccccc34)CC2)c1
237 to 238 | CCCc1c(OCc2cc(Br)c(C(=O)O)cc2OC)ccc(C(C)=O)c1O
159 to 161 | COc1cccc(Sc2ccnc(Nc3ccc(N4CCOCC4)cc3)n2)c1
116 | CC(C)(C)N1C(=O)CN(c2ccccc2)C1=O
266 | COC(=O)c1c(C)n(-c2cc([N+](=O)[O-])c(C)cc2C)cc(Cl)c1=O
153 to 155 | COc1ccc2c(C(=O)O)c(OC)ccc2c1
166 to 167 | Cc1nc2cccc3n(CCCCNS(C)(=O)=O)c(=O)c1n23
177 to 179 | CCCc1c(OCCCS(=O)(=O)c2ccc(C(=O)O)cn2)ccc(C(C)=O)c1O
169 to 172 | Cc1cc(C)n(-c2nc(Nc3cc(C(F)(F)F)cc(C(F)(F)F)c3)c3ccccc3n2)n1
128 to 130 | CC(=O)Nc1cc(O)cc(C(C)CCCc2ccccc2)c1 (stereo not drawn)

melting point [°C] | SMILES
117 to 120 | Cc1c(NC(=O)C(CSC(=O)C(C)(C)C)Cc2ccccc2)cccc1C(=O)O (stereo not drawn)
286 | Cc1cccc2c1[nH]c1c(C(=O)O)cccc12
155 to 162 | Nc1ncc(-c2cccc3ccccc23)o1
157 to 159 | CCOC(=O)C(CC)c1ccc(N2Cc3ccccc3C2=N)cc1 (stereo not drawn)
168 to 184 | CS(=O)(=O)c1ccc(-c2sc(-c3ccccc3Cl)nc2-c2ccc(Br)cc2)cc1
132 to 136 | Cn1nc(-c2c(F)cccc2F)nc1-c1ccc(OCc2ccc(OC(F)(F)F)cc2)c(Cl)c1
118 | CNC(=S)NCc1cc(-c2ccccc2)no1
176 to 177 | COc1cc(-c2nnc(C)s2)cc2oc(=O)c(Cl)c(C)c12
154 to 155 | Cc1nn(-c2ccc(C(F)(F)F)cn2)cc1COc1cc(CCC(=O)O)n(C)n1
138 to 140 | COC=C(C(=O)OC)c1ccccc1CON=C(C)c1nn(C)c2cc(OCC3CC3(Cl)Cl)c(F)cc12 (stereo not drawn)
159 to 161 | CCCCc1ncc(C(=O)OCC)c(N(C)Cc2ccc(-c3ccccc3-c3nnn[nH]3)cc2)n1
214 | CCCCc1cn(Cc2ccc(-c3ccccc3C(=O)O)cc2)c2ccccc2c1=O
155 to 158 | O=c1c2cc(O)c(O)cc2c2cc(O)c(O)cc2n1CCCc1ccccc1
173 to 177 | COc1ccc(CN2C(=O)[C@@H](N3C(=O)c4ccccc4C3=O)[C@H]2/C=C/c2ccccc2)c(OC)c1 (relative stereo)
124 to 125 | COc1cc(N)c2nc(OCc3ccc(Cl)cc3)ccc2c1
222 to 223 | CCCC(=O)NCCCn1c(C)nc2c(N)nc3ccccc3c21
204 | CC(C)(C)c1cc(C2CC(=O)N(c3ccccc3)C2=O)cc(C(C)(C)C)c1O (stereo not drawn)
130 to 132 | Cc1ccc2cccc(OCc3c(Cl)ccc(S(=O)(=O)N4CCCC4C(=O)NCCCN)c3Cl)c2n1 (stereo not drawn)
117 to 119 | O=C(Cl)c1sc2ccc(Oc3ccccc3)cc2c1Cl
117 to 121 | CCCCCCCCCCCCNC(=O)C(CC(=O)O)Sc1nc2ccccc2s1 (stereo not drawn)
231 to 233 | COc1ccc(NC(=O)C2CCCCn3c2nc(-c2ccncn2)cc3=O)c(OC)n1 (racemic)
200 to 230 | COC(=O)c1cc(-c2c(OC)cccc2OC)n(-c2ccc(NS(=O)(=O)c3ccc(C)cc3)cc2C2CCCC2)n1
180 | CCCn1c(=O)c2[nH]c(C(CC)Cc3ccccc3)nc2n(CCC)c1=O (stereo not drawn)
125 to 127 | O=C(O)C1(CSCc2ccccc2)Cc2ccccc2O1 (stereo not drawn)
123 to 126 | Cc1cccc(-c2[nH]c(C(C)C)nc2-c2cccc(-c3cccc(S(N)(=O)=O)c3)c2)n1
156 to 157 | CCOC(=O)Cc1cn(Cc2ccccc2)nc1O

Continued, molecule first:

SMILES | melting point [°C]
CCN1CN=C2SCC(O)(c3ccc(Br)cc3)N2C1 (stereo not drawn) | 132 to 134
NC(=O)c1ccc(-c2ccc(Oc3ccc(F)cc3)cc2)[nH]1 | 218 to 220
NC(=O)C1=CCCc2cc(Sc3cccc(F)c3)cc(F)c21 | 213 to 214
Cn1c(COc2ccc(CC3SC(=O)NC3=O)cc2)nc2ccc(Oc3ccc(NC(=O)c4cc(C(C)(C)C)c(O)c(C(C)(C)C)c4)cc3)cc21 (stereo not drawn) | 160 to 162
Nc1c2c(nc3ccccc13)CCCC2N1CCC(c2ccccc2)CC1 (stereo not drawn) | 189 to 190
O=C(Nc1ccc(S(=O)(=O)c2ccc([N+](=O)[O-])cc2)cc1)N[C@@H](Cc1ccc(NC(=O)c2c(Cl)cccc2Cl)cc1)C(=O)O | 223
O=[N+]([O-])c1cccc2c1c([N+](=O)[O-])cc1nc(O)c(O)nc12 | > 300
O=C1C=C(Oc2ccc(C3CCCC3)cc2)C(O)O1 (stereo not drawn) | 101 to 103
Nc1nc2c(s1)CCN(CC=Cc1ccc(Cl)cc1)CC2 | 145 to 150
CCCCCCCCCCCCSc1n[nH]c(-c2ccc(C(C)(C)C)cc2)n1 | 87 to 92
CCOC(=O)/C=C/C(=C(c1ccc(F)cc1)c1ccc(F)cc1)C(C)C | 66 to 67
O=C(NC1CCC(CCN2CCC(c3cccc4c3CCO4)CC2)CC1)c1ccc(N2CCS(=O)(=O)CC2)cc1 (stereo not drawn) | 282
CC(C)c1nc(CCl)n(C)c1Sc1cc(Cl)cc(Cl)c1 | 110 to 111
CCOC(=S)c1sc(Cl)nc1C(F)(F)F | 28 to 32
Cc1cc(-c2nc3ccccc3c(=O)n2-c2ccc(Br)cc2)cc(C)c1OCCO | 164 to 165
CC(O)c1cc(S(N)(=O)=O)sc1S(=O)(=O)c1ccc(O)cc1 (stereo not drawn) | 173 to 175
O=C(OCc1ccc(F)cc1)c1cccc(C(=O)OCc2ccc(F)cc2)c1 | 78 to 79
CC(O)c1ccc2occ(-c3nnn[nH]3)c(=O)c2c1 (stereo not drawn) | 234 to 236
CC(=O)NN=C(C)c1ccc(C)nc1 | 178
COc1c(C(C)=O)c(OC2SCC(O)C(O)C2O)c(OC)c2occc12 (stereo not drawn) | 207 to 209
CC12CCC(O)CC1CCC1C2CCC2(C)C(OCCO)CCC12 (stereo not drawn) | 181 to 183
CCOC(=O)c1cc2cc(N)ccc2nn1 | 204 to 206
CCCCCCCCCCCCCCCCCCOc1ccc(C(=O)O)cc1OCCCCCCCCCCCCCCCCCC | 94 to 117

SMILES | melting point [°C]
NS(=O)(=O)c1ccc(S[C@H]2CC[C@H](O)CC2)s1 | 145 to 147
CC12CCC(C1)C(C)(C)C2(S)CCO (stereo not drawn) | 55 to 60
O=C(O)c1ncn(C(c2ccccc2)c2ccccc2)c1C(=O)O | 194
O=C(O)CCCCCCCCNS(=O)(=O)c1ccc(Br)cc1 | 124 to 125
Cc1ccc(N2CN(C)CNC2=S)cc1 | 176 to 178
CCN1CCc2ccc(Nc3ncc(Cl)c(N[C@H]4CCC[C@H]4C(N)=O)n3)cc2CC1 (relative stereo) | 237 to 242
CCCCCCCCN1C(=O)c2c(Br)sc(Br)c2C1=O | 104
Cc1ccc2c(c1)C1CN(CCCC#N)CCC1N2 (stereo not drawn) | 160 to 165
O=C(O)CCCc1ccc(C(=O)CCCc2ccccc2)cc1 | 111 to 112
O=S1(=O)CCc2nn(-c3ccc(Cl)cc3F)c(Cl)c2C1 | 141 to 143
Cc1c2c(c(Br)n1C)NC(=O)CN=C2c1ccccc1 | 200 to 202
CCOC(=O)c1c(-c2ccc(Cl)cc2)[nH]c(C(F)(F)F)c1C(F)(F)F | 138 to 140
CC(NC(=O)c1cccc([N+](=O)[O-])c1)C(F)(F)F (stereo not drawn) | 130 to 131
CC(C)(C)C(=O)N(NC(=O)c1ccccc1)C(C)(C)C | 217 to 220
CC1(C)Cc2cc(OCC(=O)O)c(Cl)c(Cl)c2C1=O | 182
N#CC1=CSCC1Nc1c(Cl)cccc1Cl (stereo not drawn) | 170 to 173
CCN(CC)C(=O)c1c(C(C)C)cc(OC)cc1S(N)(=O)=O | 122 to 125
CCCc1ccc2nc(Cl)c(S(=O)(=O)Cl)n2n1 | 94.2 to 95.5
CCOC(=O)c1ccc(N)cc1F | 110 to 112
Cc1ccc(S(=O)(=O)NN=CC(Cl)Cl)cc1 | 123
O=C(Nc1cc(Cl)ccc1S(=O)(=O)c1ccccc1)N[C@@H](Cc1ccc(NC(=O)c2c(Cl)cccc2Cl)cc1)C(=O)O | 242
O=C(O)C(O)c1ccc2nc(-c3ccc(Cl)cc3)oc2c1 (stereo not drawn) | 222 to 224
CCNC(=O)NCc1ccc(/C=C/C(c2cc(Cl)cc(Cl)c2)C(F)(F)F)cc1Cl (stereo not drawn) | 177 to 178
